Source: patent publication US20050176149A1, “Process for the reversible functional inactivation of the mismatch repair system” (priority 2002, published 2005)
Entries after “also recorded” stand apart in the source; their conditions may differ.

Experiments:
[1] = tested on: donor and recipient strains; assay: growth of donor and recipient strains in LB medium with 2-AP; assay type: cell-based, E. coli; settings: 37° C., compared to growth without 2-AP (about 3 hours)
Experimental: The conjugation experiments have been performed under the previously described conditions (Rayssiguier et al., 1989). The overnight cultures of donor strains (2-4×10^9 cells/ml) comprising the DNA sequence to be introduced and recipient strains comprising the autologous DNA sequences were diluted 50-fold into fresh LB medium, with or without 2-aminopurine (Sigma), and grown with gentle shaking (about 150 rpm) in order to obtain 2-4×10^8 cells/ml. In order to obtain the required concentration of cells, about 3 hours of incubation is required. When cells were treated with 2-AP, the growth was slightly slower (the incubation was about 30 minutes longer) compared to the growth without 2-AP. The 2-AP treatment of the donor and recipient strains before mating is preferred as 2-AP must be incorporated in the DNA during replication in order to saturate mismatch repair. The doses of 2-AP tested were: 25 μg/ml, 50 μg/ml, 75 μg/ml, 100 μg/ml, 300 μg/ml and 600 μg/ml. The effect of 2-AP treatment was already significant when 50 μg/ml of 2-AP was used. […] Mating mixtures were prepared by mixing together Hfr and F^− bacteria in a 1:1 ratio. This mixture was filtered through a sterile 0.45-μm-pore size nitrocellulose filter (2.5 cm diameter), using vacuum filtration equipment (MILLIPORE). […] Recombinants were scored after incubation of 48 hours at 37° C.

[2] = tested on: intraspecies E. coli Hfr×E. coli F^− conjugational recombination; assay: intraspecies E. coli Hfr×E. coli F^− conjugational recombination (Thr^+ recombinants per Hfr donor); assay type: cell-based; settings: mutS^+ (wildtype) or mutS^− background
Text: (§1) FIG. 1: Influence of 2-aminopurine (2-AP) on the efficiency of intraspecies E. coli Hfr×E. coli F^− and interspecies S. typhimurium Hfr×E. coli F^− conjugational recombination. Recipient E. coli strains were either mutS^+ (A, C) or mutS^− (B, D). The recombination frequencies for the selected marker (Thr^+) are expressed per Hfr donor after subtracting unmated revertants. Each number represents the mean (± standard error) of at least three independent experiments.
The conjugation experiments have been performed under the previously described conditions (Rayssiguier et al., 1989). The overnight cultures of donor strains (2-4×10^9 cells/ml) comprising the DNA sequence to be introduced and recipient strains comprising the autologous DNA sequences were diluted 50-fold into fresh LB medium, with or without 2-aminopurine (Sigma), and grown with gentle shaking (about 150 rpm) in order to obtain 2-4×10^8 cells/ml. In order to obtain the required concentration of cells, about 3 hours of incubation is required. When cells were treated with 2-AP, the growth was slightly slower (the incubation was about 30 minutes longer) compared to the growth without 2-AP. The 2-AP treatment of the donor and recipient strains before mating is preferred as 2-AP must be incorporated in the DNA during replication in order to saturate mismatch repair. […] Recombinants were scored after incubation of 48 hours at 37° C.

[3] = tested on: interspecies S. typhimurium Hfr×E. coli F^− conjugational recombination; assay: interspecies S. typhimurium Hfr×E. coli F^− conjugational recombination (Thr^+ recombinants per Hfr donor); assay type: cell-based
Text: as §1
The conjugation experiments have been performed under the previously described conditions (Rayssiguier et al., 1989). The overnight cultures of donor strains (2-4×10^9 cells/ml) comprising the DNA sequence to be introduced and recipient strains comprising the autologous DNA sequences were diluted 50-fold into fresh LB medium, with or without 2-aminopurine (Sigma), and grown with gentle shaking (about 150 rpm) in order to obtain 2-4×10^8 cells/ml. In order to obtain the required concentration of cells, about 3 hours of incubation is required. When cells were treated with 2-AP, the growth was slightly slower (the incubation was about 30 minutes longer) compared to the growth without 2-AP. The 2-AP treatment of the donor and recipient strains before mating is preferred as 2-AP must be incorporated in the DNA during replication in order to saturate mismatch repair. The doses of 2-AP tested were: 25 μg/ml, 50 μg/ml, 75 μg/ml, 100 μg/ml, 300 μg/ml and 600 μg/ml. The effect of 2-AP treatment was already significant when 50 μg/ml of 2-AP was used. […] Mating mixtures were prepared by mixing together Hfr and F^− bacteria in a 1:1 ratio. This mixture was filtered through a sterile 0.45-μm-pore size nitrocellulose filter (2.5 cm diameter), using vacuum filtration equipment (MILLIPORE). The filters with mating mixtures i.e. mixtures with cells comprising autologous and introduced nucleotide sequences were incubated on fresh LB agar plate (with or without 2-aminopurine) prewarmed at 37° C. […] For this purpose, the M9 medium [supplemented with arginine, histidine, leucine, proline and tryptophane (100 μg/ml each), thiamine (30 μg/ml), glucose (0.4%), and nalidixic acid (40 μg/ml) to counter-select the Hfr donor cells] was used. Threonine was not added to the media in order to select Thr^+ recombinants. Recombinants were scored after incubation of 48 hours at 37° C.
The recombination between these two bacterial species, which have about 16% divergence in their genomic sequences, is very low (10^−8-10^−7; FIG. 1A) compared to intraspecies recombination (about 10^−1; FIG. 1C). Inactivation of the mutS or mutL gene in recipient cells according to the present invention using 2-AP increases about 10^3-10^4-fold the frequency of interspecies recombination (FIG. 1B, FIG. 2A and 2B).

MutL protein = molecular target: T1, MutL protein (Escherichia coli, UniProt P23367); assay: identification of the mismatch-repair system component saturated or inhibited by 2-AP (complementation with mutS^+ or mutL^+ plasmids); assay type: cell-based, E. coli; settings: 2-AP 300 mg/ml (so in the source); plasmids carrying mutS^+ or mutL^+
T1 construct: endogenous in cells; host or cells: E. coli K12 AB1157 derivatives (MX4, MX5); In MX5 (mutL218::Tn10), MutL comes from plasmid pMQ339 (mutL+)
T1 sequence (P23367 whole entry): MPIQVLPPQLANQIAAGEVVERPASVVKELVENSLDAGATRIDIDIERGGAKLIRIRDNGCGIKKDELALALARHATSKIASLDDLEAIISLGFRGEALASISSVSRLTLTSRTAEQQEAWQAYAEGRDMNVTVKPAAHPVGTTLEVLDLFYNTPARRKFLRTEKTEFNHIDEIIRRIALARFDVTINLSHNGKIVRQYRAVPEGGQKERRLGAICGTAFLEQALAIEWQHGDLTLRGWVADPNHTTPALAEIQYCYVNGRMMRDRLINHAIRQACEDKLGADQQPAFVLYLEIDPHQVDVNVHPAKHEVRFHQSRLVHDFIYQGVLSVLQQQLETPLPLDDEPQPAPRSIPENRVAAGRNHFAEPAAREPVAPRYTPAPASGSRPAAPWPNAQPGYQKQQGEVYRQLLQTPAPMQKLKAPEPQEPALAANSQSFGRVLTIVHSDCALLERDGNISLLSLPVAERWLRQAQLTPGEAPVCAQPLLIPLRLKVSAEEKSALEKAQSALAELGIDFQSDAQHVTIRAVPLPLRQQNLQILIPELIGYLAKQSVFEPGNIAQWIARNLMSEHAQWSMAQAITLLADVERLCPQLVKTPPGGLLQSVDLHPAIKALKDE
Experimental: FIG. 2: Identification of the mismatch-repair system component, which is saturated or inhibited with 2-aminopurine (2-AP) treatment. Recipient E. coli strains were either […] (A, B) or mutL^− (C, D). The mismatch repair deficiency was complemented with plasmids carrying mutS^+ (A, B) or mutL^+ genes (C, D). The dose of 2-AP used in these experiments was always 300 mg/ml. The recombination frequencies for the selected marker (Thr^+) are expressed per Hfr donor after subtracting unmated revertants. Each number represents the mean (± standard error) of at least three independent experiments.
Plasmids carrying mutS^+ or mutL^+ genes were indroduced by electrotransformation (using BIO RAD micro pulser apparatus) in MX4 and MX5 strains, respectively.
The conjugation experiments have been performed under the previously described conditions (Rayssiguier et al., 1989). The overnight cultures of donor strains (2-4×10^9 cells/ml) comprising the DNA sequence to be introduced and recipient strains comprising the autologous DNA sequences were diluted 50-fold into fresh LB medium, with or without 2-aminopurine (Sigma), and grown with gentle shaking (about 150 rpm) in order to obtain 2-4×10^8 cells/ml. In order to obtain the required concentration of cells, about 3 hours of incubation is required. […] Recombinants were scored after incubation of 48 hours at 37° C.

Nc1ncc2[nH]cnc2n1 [2-AP, 2-aminopurine]
additional incubation time needed to reach 2-4×10^8 cells/ml (slower growth) with 2-AP [1]: about 30 minutes
effect of 2-AP on frequency of intraspecies recombination [2]: not considerably increased; also recorded: not modified
2-AP dose at which the effect on recombination was already significant ([3]; doses tested 25-600 μg/ml): 50 µg/mL
2-AP dose of maximal effect on recombination efficiency ([3]; doses tested 25-600 μg/ml, further increases did not increase recombination efficiency further): 100 µg/mL
2-AP effect on interspecies recombination in mutS^− recipient background ([3]; mutS^− recipient (FIG. 1B) compared with wildtype (FIG. 1A)): not as pronounced as in a wildtype background
2-AP concentration range in which an increase of recombination frequency is seen ([3]; wild-type recipient cells, in particular at and above 75 μg/ml): 50 to 600 µg/mL
component of the MRS titrated or inactivated by the 2-AP treatment (MutL protein): MutL protein
